From PubChem BioAssay AID2060896 (Molecular Pharmacology Branch, DTP, NCI, 2025)
Blank lines part the entries; values can stand above or below the molecule they belong to.

System: 941728-121-R-J1-PDC complex spheroid viability
Experiment: Anticancer human tumor 941728-121-R-J1-PDC patient-derived lung adenocarcinoma cell line growth inhibition [RAS]
Settings: for IC50: curve of first compound; for viability, T/C: stronger effect = lower value
In short: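 Multi-cell-type spheroids: tumor cells plus HUVEC endothelial cells and mesenchymal stem cells. RAS-pathway inhibitors were combined with targeted agents, each dosed in half-log steps down from clinical Cmax, or from 10 microM when Cmax was unknown.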

[1] = second compound 0.000949 µM, first compound 0.00316 µM
[2] = second compound 0.000949 µM, first compound 0.01 µM
[3] = second compound 0.000949 µM, first compound 0.0316 µM
[4] = second compound 0.000949 µM, first compound 0.1 µM
[5] = second compound 0.003 µM, first compound 0.00316 µM
[6] = second compound 0.003 µM, first compound 0.01 µM
[7] = second compound 0.003 µM, first compound 0.0316 µM
[8] = second compound 0.003 µM, first compound 0.1 µM
[9] = second compound 0.00949 µM, first compound 0.00316 µM
[10] = second compound 0.00949 µM, first compound 0.01 µM
[11] = second compound 0.00949 µM, first compound 0.0316 µM
[12] = second compound 0.00949 µM, first compound 0.1 µM
[13] = second compound 0.03 µM, first compound 0.00316 µM
[14] = second compound 0.03 µM, first compound 0.01 µM
[15] = second compound 0.03 µM, first compound 0.0316 µM
[16] = second compound 0.03 µM, first compound 0.1 µM
[17] = second compound 0.0949 µM, first compound 0.00316 µM
[18] = second compound 0.0949 µM, first compound 0.01 µM
[19] = second compound 0.0949 µM, first compound 0.0316 µM
[20] = second compound 0.0949 µM, first compound 0.1 µM
[21] = second compound 0.3 µM, first compound 0.00316 µM
[22] = second compound 0.3 µM, first compound 0.01 µM
[23] = second compound 0.3 µM, first compound 0.0316 µM
[24] = second compound 0.3 µM, first compound 0.1 µM
[25] = second compound 0.000949 µM, first compound 0.316 µM
[26] = second compound 0.000949 µM, first compound 1 µM
[27] = second compound 0.000949 µM, first compound 3.16 µM
[28] = second compound 0.000949 µM, first compound 10 µM
[29] = second compound 0.003 µM, first compound 0.316 µM
[30] = second compound 0.003 µM, first compound 1 µM
[31] = second compound 0.003 µM, first compound 3.16 µM
[32] = second compound 0.003 µM, first compound 10 µM
[33] = second compound 0.00949 µM, first compound 0.316 µM
[34] = second compound 0.00949 µM, first compound 1 µM
[35] = second compound 0.00949 µM, first compound 3.16 µM
[36] = second compound 0.00949 µM, first compound 10 µM
[37] = second compound 0.03 µM, first compound 0.316 µM
[38] = second compound 0.03 µM, first compound 1 µM
[39] = second compound 0.03 µM, first compound 3.16 µM
[40] = second compound 0.03 µM, first compound 10 µM
[41] = second compound 0.0949 µM, first compound 0.316 µM
[42] = second compound 0.0949 µM, first compound 1 µM
[43] = second compound 0.0949 µM, first compound 3.16 µM
[44] = second compound 0.0949 µM, first compound 10 µM
[45] = second compound 0.3 µM, first compound 0.316 µM
[46] = second compound 0.3 µM, first compound 1 µM
[47] = second compound 0.3 µM, first compound 3.16 µM
[48] = second compound 0.3 µM, first compound 10 µM
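Further: spheroids exposed to compounds for 7 days before readout.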
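Wherever viability, T/C is given: 100% = DMSO vehicle control viability.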

- IC50 (second compound 0.000949 µM): < 0.316 nM
- IC50 (second compound 0.003 µM): < 0.316 nM
- IC50 (second compound 0.00949 µM): < 0.316 nM
- IC50 (second compound 0.03 µM): < 0.316 nM
- IC50 (second compound 0.0949 µM): < 0.316 nM
- IC50 (second compound 0.3 µM): < 0.316 nM
Structure (SMILES): CC(C)n1nc(-c2ccc3oc(N)nc3c2)c2c(N)ncnc21 + CCn1c(-c2cc(N3CCN(C)CC3)cnc2C(C)OC)c2c3cc(ccc31)-c1csc(n1)CC(NC(=O)C1CC1C)C(=O)N1CCCC(N1)C(=O)OCC(C)(C)C2
- viability, T/C (second compound 0.000949 µM, first compound 0.000316 µM): 25.5%
- viability, T/C (second compound 0.000949 µM, first compound 0.001 µM): 27.6%
- viability, T/C [1]: 18.6%
- viability, T/C [2]: 20.2%
- viability, T/C [3]: 16.9%
- viability, T/C [4]: 11.1%
- viability, T/C (second compound 0.003 µM, first compound 0.000316 µM): 24.6%
- viability, T/C (second compound 0.003 µM, first compound 0.001 µM): 20.8%
- viability, T/C [5]: 16%
- viability, T/C [6]: 14.4%
- viability, T/C [7]: 10.9%
- viability, T/C [8]: 8.48%
- viability, T/C (second compound 0.00949 µM, first compound 0.000316 µM): 17.6%
- viability, T/C (second compound 0.00949 µM, first compound 0.001 µM): 16%
- viability, T/C [9]: 16.3%
- viability, T/C [10]: 11.6%
- viability, T/C [11]: 8.78%
- viability, T/C [12]: 5.45%
- viability, T/C (second compound 0.03 µM, first compound 0.000316 µM): 13.4%
- viability, T/C (second compound 0.03 µM, first compound 0.001 µM): 14.6%
- viability, T/C [13]: 13.4%
- viability, T/C [14]: 10.7%
- viability, T/C [15]: 6.44%
- viability, T/C [16]: 6.86%
- viability, T/C (second compound 0.0949 µM, first compound 0.000316 µM): 12.7%
- viability, T/C (second compound 0.0949 µM, first compound 0.001 µM): 14.2%
- viability, T/C [17]: 12.8%
- viability, T/C [18]: 11.6%
- viability, T/C [19]: 6.3%
- viability, T/C [20]: 6.4%
- viability, T/C (second compound 0.3 µM, first compound 0.000316 µM): 13.4%
- viability, T/C (second compound 0.3 µM, first compound 0.001 µM): 13.9%
- viability, T/C [21]: 12.9%
- viability, T/C [22]: 11.2%
- viability, T/C [23]: 7.62%
- viability, T/C [24]: 7.03%

- IC50 (second compound 0.000949 µM): < 31.6 nM
- IC50 (second compound 0.003 µM): < 31.6 nM
- IC50 (second compound 0.00949 µM): < 31.6 nM
- IC50 (second compound 0.03 µM): < 31.6 nM
- IC50 (second compound 0.0949 µM): < 31.6 nM
- IC50 (second compound 0.3 µM): < 31.6 nM
Structure (SMILES): CC1(O)CCCC1n1c(=O)c(C(F)F)cc2cnc(NC3CCN(S(C)(=O)=O)CC3)nc21 (stereo not drawn) + CCn1c(-c2cc(N3CCN(C)CC3)cnc2C(C)OC)c2c3cc(ccc31)-c1csc(n1)CC(NC(=O)C1CC1C)C(=O)N1CCCC(N1)C(=O)OCC(C)(C)C2
- viability, T/C [3]: 28.6%
- viability, T/C [4]: 30.3%
- viability, T/C [25]: 24.8%
- viability, T/C [26]: 38.3%
- viability, T/C [27]: 34.9%
- viability, T/C [28]: 31.3%
- viability, T/C [7]: 24.4%
- viability, T/C [8]: 20.1%
- viability, T/C [29]: 18.4%
- viability, T/C [30]: 22.3%
- viability, T/C [31]: 23.3%
- viability, T/C [32]: 26.9%
- viability, T/C [11]: 16.5%
- viability, T/C [12]: 13.6%
- viability, T/C [33]: 15.9%
- viability, T/C [34]: 17.5%
- viability, T/C [35]: 15.6%
- viability, T/C [36]: 28.4%
- viability, T/C [15]: 13.4%
- viability, T/C [16]: 12.6%
- viability, T/C [37]: 13.5%
- viability, T/C [38]: 14.4%
- viability, T/C [39]: 9.96%
- viability, T/C [40]: 27.3%
- viability, T/C [19]: 11.1%
- viability, T/C [20]: 14.5%
- viability, T/C [41]: 14.3%
- viability, T/C [42]: 14.8%
- viability, T/C [43]: 9.56%
- viability, T/C [44]: 27.7%
- viability, T/C [23]: 10.4%
- viability, T/C [24]: 11.6%
- viability, T/C [45]: 13.3%
- viability, T/C [46]: 15.2%
- viability, T/C [47]: 12.2%
- viability, T/C [48]: 23.8%

- IC50 (second compound 0.000949 µM): < 3.16 nM
- IC50 (second compound 0.003 µM): < 3.16 nM
- IC50 (second compound 0.00949 µM): < 3.16 nM
- IC50 (second compound 0.03 µM): < 3.16 nM
- IC50 (second compound 0.0949 µM): < 3.16 nM
- IC50 (second compound 0.3 µM): < 3.16 nM
Structure (SMILES): CCN1CCN(Cc2ccc(Nc3ncc(F)c(-c4cc(F)c5nc(C)n(C(C)C)c5c4)n3)nc2)CC1 + CCn1c(-c2cc(N3CCN(C)CC3)cnc2C(C)OC)c2c3cc(ccc31)-c1csc(n1)CC(NC(=O)C1CC1C)C(=O)N1CCCC(N1)C(=O)OCC(C)(C)C2
- viability, T/C [1]: 27%
- viability, T/C [2]: 29.4%
- viability, T/C [3]: 18.9%
- viability, T/C [4]: 27.1%
- viability, T/C [25]: 23.3%
- viability, T/C [26]: 16.6%
- viability, T/C [5]: 22.8%
- viability, T/C [6]: 19.8%
- viability, T/C [7]: 14.4%
- viability, T/C [8]: 18.9%
- viability, T/C [29]: 17.7%
- viability, T/C [30]: 9.4%
- viability, T/C [9]: 15.1%
- viability, T/C [10]: 13.4%
- viability, T/C [11]: 13.7%
- viability, T/C [12]: 11.1%
- viability, T/C [33]: 12.1%
- viability, T/C [34]: 10.4%
- viability, T/C [13]: 13.2%
- viability, T/C [14]: 14.1%
- viability, T/C [15]: 11.8%
- viability, T/C [16]: 10.1%
- viability, T/C [37]: 6.16%
- viability, T/C [38]: 11.3%
- viability, T/C [17]: 13.4%
- viability, T/C [18]: 11.8%
- viability, T/C [19]: 10.1%
- viability, T/C [20]: 9.14%
- viability, T/C [41]: 7.16%
- viability, T/C [42]: 9.08%
- viability, T/C [21]: 11.3%
- viability, T/C [22]: 11.9%
- viability, T/C [23]: 11.7%
- viability, T/C [24]: 8.41%
- viability, T/C [45]: 6.3%
- viability, T/C [46]: 10.6%

- IC50 (second compound 0.000949 µM): < 31.6 nM
- IC50 (second compound 0.003 µM): < 31.6 nM
- IC50 (second compound 0.00949 µM): < 31.6 nM
- IC50 (second compound 0.03 µM): < 31.6 nM
- IC50 (second compound 0.0949 µM): < 31.6 nM
- IC50 (second compound 0.3 µM): < 31.6 nM
Structure (SMILES): C[C@@H](NC(=O)c1ncnc(N)c1Cl)c1ncc(C(=O)Nc2cc(C(F)(F)F)c(Cl)cn2)s1 + CCn1c(-c2cc(N3CCN(C)CC3)cnc2C(C)OC)c2c3cc(ccc31)-c1csc(n1)CC(NC(=O)C1CC1C)C(=O)N1CCCC(N1)C(=O)OCC(C)(C)C2
- viability, T/C [3]: 28.7%
- viability, T/C [4]: 30.9%
- viability, T/C [25]: 22.4%
- viability, T/C [26]: 34%
- viability, T/C [27]: 33.6%
- viability, T/C [28]: 24.5%
- viability, T/C [7]: 27.8%
- viability, T/C [8]: 24.4%
- viability, T/C [29]: 22.4%
- viability, T/C [30]: 24.9%
- viability, T/C [31]: 27.9%
- viability, T/C [32]: 20%
- viability, T/C [11]: 19.1%
- viability, T/C [12]: 15.5%
- viability, T/C [33]: 21.6%
- viability, T/C [34]: 21.9%
- viability, T/C [35]: 19.7%
- viability, T/C [36]: 17.9%
- viability, T/C [15]: 14.1%
- viability, T/C [16]: 16.5%
- viability, T/C [37]: 17.1%
- viability, T/C [38]: 15.4%
- viability, T/C [39]: 15.4%
- viability, T/C [40]: 14.9%
- viability, T/C [19]: 13.6%
- viability, T/C [20]: 15.7%
- viability, T/C [41]: 14.3%
- viability, T/C [42]: 14.3%
- viability, T/C [43]: 11.7%
- viability, T/C [44]: 13.6%
- viability, T/C [23]: 13.8%
- viability, T/C [24]: 13.7%
- viability, T/C [45]: 15.6%
- viability, T/C [46]: 13.8%
- viability, T/C [47]: 12.3%
- viability, T/C [48]: 11.9%
